SMILES strings stand for the structures. pIC50: −log10 of the molar value. Structures can show the parent of a compound that is named as a salt.

Sequence of PARP-1 (poly[ADP-ribose] polymerase 1) enzyme (P09874 whole entry): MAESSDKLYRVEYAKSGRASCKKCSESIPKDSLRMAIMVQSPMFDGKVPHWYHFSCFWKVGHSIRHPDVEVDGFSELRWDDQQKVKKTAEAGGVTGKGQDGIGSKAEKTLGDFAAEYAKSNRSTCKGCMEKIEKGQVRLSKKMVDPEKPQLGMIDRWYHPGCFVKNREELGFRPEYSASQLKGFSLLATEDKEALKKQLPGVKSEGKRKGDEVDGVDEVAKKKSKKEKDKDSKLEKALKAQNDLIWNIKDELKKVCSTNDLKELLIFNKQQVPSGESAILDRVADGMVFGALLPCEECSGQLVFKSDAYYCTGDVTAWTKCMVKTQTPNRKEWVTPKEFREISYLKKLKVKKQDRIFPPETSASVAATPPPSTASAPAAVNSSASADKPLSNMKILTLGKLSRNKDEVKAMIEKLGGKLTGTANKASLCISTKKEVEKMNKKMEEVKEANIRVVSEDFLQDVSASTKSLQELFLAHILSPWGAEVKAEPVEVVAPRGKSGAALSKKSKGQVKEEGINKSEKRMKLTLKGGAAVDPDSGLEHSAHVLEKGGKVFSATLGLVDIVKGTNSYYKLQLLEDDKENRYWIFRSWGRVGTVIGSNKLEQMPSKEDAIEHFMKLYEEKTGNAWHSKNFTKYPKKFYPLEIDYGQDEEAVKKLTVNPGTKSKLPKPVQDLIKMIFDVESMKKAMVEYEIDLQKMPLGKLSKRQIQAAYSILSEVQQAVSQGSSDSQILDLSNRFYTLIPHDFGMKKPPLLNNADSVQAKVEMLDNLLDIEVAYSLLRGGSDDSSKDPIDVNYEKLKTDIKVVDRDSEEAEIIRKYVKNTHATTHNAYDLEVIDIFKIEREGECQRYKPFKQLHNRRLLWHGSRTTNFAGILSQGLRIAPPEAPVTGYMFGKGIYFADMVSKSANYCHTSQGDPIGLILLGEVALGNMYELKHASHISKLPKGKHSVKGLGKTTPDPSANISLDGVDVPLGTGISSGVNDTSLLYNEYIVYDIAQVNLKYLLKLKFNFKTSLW

The target of the first experiment is PARP-1 (poly[ADP-ribose] polymerase 1) enzyme (Homo sapiens (Human), UniProt P09874). The experiment in a line: PARP-1 (poly[ADP-ribose] polymerase 1) enzyme inhibitory ability, Trevigen assay kit. The class given is biochemical. The following applies: 1 nM compound; read-out: PAR P-1 Inhibitory ability at 1 nM. An outline of the steps:
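Human PARP-1 activity was measured with a Trevigen assay kit in histone-coated 96-well plates rehydrated with 50 μL of 1×PARP buffer for 30 minutes. Enzyme (0.5 unit/well) and compound were preincubated 10 minutes at room temperature, then 25 μL of 1×PARP cocktail with biotinylated NAD and activated DNA was added for 1 hour.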
As for `O=C(CCc1cc2cccc(F)c2c(=O)[nH]1)N1CCN(C(=O)C2CCCO2)CC1` (stereo not drawn) [Example 190, 8-fluoro-3-(3-oxo-3-(4-(tetrahydrofuran-2-carbonyl)piperazin-1-yl)propyl)isoquinolin-1(2H)-one], the inhibition at 0.001 µM was < 50%. For `Cc1ccc(F)c2c(=O)[nH]c(CCC(=O)N3CCN(C(=O)C4CCCO4)CC3)cc12` (stereo not drawn) [Example 191, 8-fluoro-5-methyl-3-(3-oxo-3-(4-(tetrahydrofuran-2-carbonyl)piperazin-1-yl)propyl)isoquinolin-1(2H)-one], the inhibition at 0.001 µM is < 50%. Take `O=C(CCc1cc2ccc(F)cc2c(=O)[nH]1)N1CCN(C(=O)C2CCCO2)CC1` (stereo not drawn) [Example 192, 7-fluoro-3-(3-oxo-3-(4-(tetrahydrofuran-2-carbonyl)piperazin-1-yl)propyl)isoquinolin-1(2H)-one]: the inhibition at 0.001 µM was < 50%. On the same count and under the same terms, the same measure for `Cc1cc(F)cc2c(=O)[nH]c(CCC(=O)N3CCN(C(=O)C4CCCO4)CC3)cc12` (stereo not drawn) [Example 193, 7-fluoro-5-methyl-3-(3-oxo-3-(4-(tetrahydrofuran-2-carbonyl)piperazin-1-yl)propyl)isoquinolin-1(2H)-one]: < 50%. On the same count and under the same terms, the same measure for `Cc1ccc(F)c2c(=O)[nH]c(CCC(=O)N3CCN(C(=O)[C@H](C)N)CC3)cc12` [Example 194, 3-(3-(4-(L-alanyl)piperazin-1-yl)-3-oxopropyl)-8-fluoro-5-methylisoquinolin-1(2H)-one hydrochloride]: < 50%; for `Cc1ccc(F)c2c(=O)[nH]c(CCC(=O)N3CCN(C(=O)[C@@H](N)Cc4ccccc4)CC3)cc12` [Example 195, 3-(3-(4-(L-phenylalanyl)piperazin-1-yl)-3-oxopropyl)-8-fluoro-5-methylisoquinolin-1(2H)-one hydrochloride]: < 50%.

With `Cc1ccc(F)c2c(=O)[nH]c(CCC(=O)N3CCN(C(=O)C4CCCN4)CC3)cc12` (stereo not drawn) [Example 196, hydrochloride], the inhibition at 0.001 µM is < 50%. Same read-out and setting: the same measure for `Cc1ccc(F)c2c(=O)[nH]c(CCCN3C4CCC3CN(c3ccc(C#N)cc3)C4)cc12` [Example 197]: < 50%; for `Cc1ccc(F)c2c(=O)[nH]c(CCCN3C4CCC3CN(c3ccc(F)cc3)C4)cc12` [Example 198, 8-fluoro-3-(3-(3-(4-fluorophenyl)-3,8-diazabicyclo[3.2.1]octan-8-yl)propyl)-5-methylisoquinolin-1(2H)-one]: < 50%; for `Cc1ccc(F)c2c(=O)[nH]c(CCCN3C4CCC3CN(c3ccc(C#N)cn3)C4)cc12` [Example 199]: < 50%. On the same count and under the same terms, the same measure for `Cc1ccc(F)c2c(=O)[nH]c(CCCN3C4CCC3CN(c3ccc(C#N)nc3)C4)cc12` [Example 200, 5-(8-(3-(8-fluoro-5-methyl-1-oxo-1,2-dihydroisoquinolin-3-yl)propyl)-3,8-diazabicyclo[3.2.1]octan-3-yl)picolinonitrile]: 50 to 80%; for `Cc1ccc(F)c2c(=O)[nH]c(CCCN3C4CCC3CN(c3ccc(Cl)cc3)C4)cc12` [Example 201, 3-(3-(3-(4-chlorophenyl)-3,8-diazabicyclo[3.2.1]octan-8-yl)propyl)-8-fluoro-5-methylisoquinolin-1(2H)-one]: < 50%. Turning to `Cc1ccc(F)c2c(=O)[nH]c(CCCN3C4CCC3CN(c3ccc(F)nc3)C4)cc12` [Example 202, 8-fluoro-3-(3-(3-(6-fluoropyridin-3-yl)-3,8-diazabicyclo[3.2.1]octan-8-yl)propyl)-5-methylisoquinolin-1(2H)-one], the inhibition at 0.001 µM was < 50%. Same read-out and setting: the same measure for `N#Cc1ccc(N2CC3CCC(C2)N3CCCc2cc3cccc(F)c3c(=O)[nH]2)nc1` [Example 203, 6-(8-(3-(8-fluoro-1-oxo-1,2-dihydroisoquinolin-3-yl)propyl)3,8-diazabicyclo[3.2.1]octan-3-yl)nicotinonitrile]: < 50%.

The same experiment, now with this note: PARP-1 enzyme activity.
In the case of `Cc1ccc(F)c2c(=O)[nH]c(CCCN3C4CCC3CN(c3ccc(C#N)nc3)C4)cc12` [Example 200, 5-(8-(3-(8-fluoro-5-methyl-1-oxo-1,2-dihydroisoquinolin-3-yl)propyl)-3,8-diazabicyclo[3.2.1]octan-3-yl)picolinonitrile], the pIC50 was 8.91.

In general, pIC50 refers to −log10 of the IC50, conventionally taken in molar units. Read a high pIC50 as a small IC50.

The record behind these values is patent publication US12459899B2, “Isoquinolinone derivatives, method for preparing the same, and pharmaceutical composition for preventing or treating poly(ADP-ribose) polymerase-1-related diseases, comprising the same as active ingredient” (DIGMBIO. INC., priority 2019, dated 2025).
